Patent US4954490A, “11 β-substituted progesterone analogs” (Research Triangle Institute, priority 1988, dated 1990)
Entries after “also recorded” stand apart in the source; their conditions may differ.

Experiments:
progesterone receptor = target: T1, progesterone receptor (Oryctolagus cuniculus, UniProt P06186); experiment: Relative binding affinity to progesterone receptor in uterine cytosol (displacement of tritium-labeled progesterone); design: species or system rabbit (estrogen-primed immature female); settings: for Progestin RBA: relative to progesterone (=100), rabbit uterine cytosol; for P-RBA/G-RBA: ratio of RBA values for progesterone receptor to glucocorticoid receptor
T1 construct: in the cytosol obtained from estrogen-primedimmature rabbit uterus; from tissue; host or cells: uterine cytosol of estrogen-primed immature female rabbits
T1 sequence (P06186 1-930): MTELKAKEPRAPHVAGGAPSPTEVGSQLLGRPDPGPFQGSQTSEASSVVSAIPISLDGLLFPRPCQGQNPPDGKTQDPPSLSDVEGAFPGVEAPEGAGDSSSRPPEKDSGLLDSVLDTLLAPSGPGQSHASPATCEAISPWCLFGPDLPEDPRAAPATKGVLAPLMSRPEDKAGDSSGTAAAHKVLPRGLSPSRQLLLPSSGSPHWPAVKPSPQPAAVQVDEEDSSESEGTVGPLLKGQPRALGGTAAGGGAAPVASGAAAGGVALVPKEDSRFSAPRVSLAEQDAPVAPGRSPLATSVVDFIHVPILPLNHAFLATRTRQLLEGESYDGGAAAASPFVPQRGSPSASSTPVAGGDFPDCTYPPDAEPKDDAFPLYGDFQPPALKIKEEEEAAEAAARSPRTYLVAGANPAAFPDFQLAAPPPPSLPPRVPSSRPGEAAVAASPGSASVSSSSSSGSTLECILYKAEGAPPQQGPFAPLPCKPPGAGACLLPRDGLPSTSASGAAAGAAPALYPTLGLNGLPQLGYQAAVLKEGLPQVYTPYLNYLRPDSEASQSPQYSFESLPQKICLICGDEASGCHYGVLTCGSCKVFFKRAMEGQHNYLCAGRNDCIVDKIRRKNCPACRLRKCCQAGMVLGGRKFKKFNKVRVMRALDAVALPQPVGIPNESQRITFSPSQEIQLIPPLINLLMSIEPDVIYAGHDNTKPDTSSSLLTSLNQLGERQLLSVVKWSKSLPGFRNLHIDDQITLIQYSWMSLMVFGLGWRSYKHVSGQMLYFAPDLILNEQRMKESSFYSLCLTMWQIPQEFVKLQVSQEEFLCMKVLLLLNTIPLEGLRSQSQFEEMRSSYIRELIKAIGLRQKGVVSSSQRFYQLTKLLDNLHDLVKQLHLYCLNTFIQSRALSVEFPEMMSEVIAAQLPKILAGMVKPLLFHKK
Procedure: (§1) The in vitro activity of the subject compounds was determined by measuring the binding affinities (RBA) of these compounds relative to progesterone for the progesterone receptor in the cytosol obtained from estrogen-primedimmature rabbit uterus and by measuring the RBA relative to dexamethasone for the glucocorticoid receptor from thymus of adrenalectomized rats. These assays were carried out by the procedures of J. R. Reel et al., Fertility and Sterility, 31, 552 (1979) (progesterone) and G. P. Chrousos et al., Endocrinology, 107, 472 (1980) (glucocorticoid).
^a Relative ability to displace tritiumlabeled progesterone from the
receptor in uterine cytosol from estrogenprimed immature female rabbits a
compared with progesterone (=100).

[1] = test system: endometrial response due to subcutaneous administration of progesterone; experiment: Anti-McGinty intrauterine antiprogestational test; type: in vivo, estrogen-primed immature female rabbits; settings: for ED90 (actual dose) / ED50 / ED90 (calculated): intrauterine; for ED50 / ED90 (calculated): from % Inhib = a + b · ln dose
Procedure: The antiprogestational activity of the compounds was studied after both intrauterine and oral administration. In each case the compound was tested for its ability to inhibit the endometrial response due to subcutaneous administration of progesterone to estrogen-primed immature female rabbits. The methodology used for the intrauterine test has been described by D. A. McGinty et al. See Endocrinology, 24, 829 (1939). For oral administration of test compounds, the method used was analogous to that of Clauberg. See Clauberg, Zentr. Gynakol., 54, 2757 (1930) as modified by McPhail J. Physiol. (London), 83, 145 (1935). Each active compound was characterized by a dose-related ability to block the progestational effect of simultaneously administered progesterone. When the percent inhibition was plotted versus the log of the dose, linear relationships were obtained. Linear regression analysis permitted calculation of the ED50 and ED90 values (the doses required for 50% and 90% inhibition of the progesterone effect, respectively). The actual dose which gave 90% or more inhibition is also given, although this value is probably less accurate than the calculated values which are based on the dose-response line. […] Since the intrauterine administration bypasses most of the drug-metabolizing systems of the body, especially the liver, intrinsic activity is expected to correlate reasonably well with binding activity to the receptor, according to currently held hypotheses regarding receptor binding.

[2] = test system: endometrial proliferation (McPhail Index); experiment: Progestational activity, intrauterine (McGinty assay); type: in vivo, estrogen-primed immature female rabbits; settings: right horn control 0
Procedure: In this assay estrogen-primed immature female rabbits are treated by injection of the test compound into the left horn of the uterus while the right horn is left untreated as a control. Each horn is then scored for endometrial proliferation by the McPhail Index. […] It indicates a possible need for reassessment of the current hypotheses regarding the effect of this substituent on antagonist versus agonist activity.

glucocorticoid receptor = target: T2, glucocorticoid receptor (Rattus norvegicus, UniProt P06536); experiment: Relative binding affinity to glucocorticoid receptor of thymus (displacement of tritium-labeled dexamethasone); design: species or system rat (adrenalectomized); settings: relative to dexamethasone (=100)
T2 construct: glucocorticoid receptor from thymus of adrenalectomized rats; from tissue; host or cells: thymus of adrenalectomized rats
T2 sequence (P06536 1-795): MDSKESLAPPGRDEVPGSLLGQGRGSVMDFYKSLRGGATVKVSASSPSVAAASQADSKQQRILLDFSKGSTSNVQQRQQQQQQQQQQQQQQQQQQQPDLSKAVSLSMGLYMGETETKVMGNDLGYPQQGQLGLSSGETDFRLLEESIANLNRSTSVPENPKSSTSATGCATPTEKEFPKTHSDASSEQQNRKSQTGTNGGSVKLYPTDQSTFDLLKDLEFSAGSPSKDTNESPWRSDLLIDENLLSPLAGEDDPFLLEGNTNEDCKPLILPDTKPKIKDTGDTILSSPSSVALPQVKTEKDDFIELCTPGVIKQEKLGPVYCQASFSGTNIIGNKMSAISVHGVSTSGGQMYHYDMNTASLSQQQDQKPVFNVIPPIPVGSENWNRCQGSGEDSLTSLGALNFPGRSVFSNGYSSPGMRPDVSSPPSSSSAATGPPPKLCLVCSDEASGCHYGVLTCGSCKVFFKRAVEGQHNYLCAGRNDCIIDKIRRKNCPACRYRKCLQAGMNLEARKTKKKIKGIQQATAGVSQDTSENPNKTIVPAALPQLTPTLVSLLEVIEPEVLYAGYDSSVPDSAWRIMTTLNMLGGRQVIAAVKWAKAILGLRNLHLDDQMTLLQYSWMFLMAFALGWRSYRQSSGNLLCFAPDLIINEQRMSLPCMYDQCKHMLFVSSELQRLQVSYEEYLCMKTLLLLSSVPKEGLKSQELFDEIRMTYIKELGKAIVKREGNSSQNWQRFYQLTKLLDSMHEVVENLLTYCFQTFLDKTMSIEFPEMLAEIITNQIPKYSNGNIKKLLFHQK
Procedure: as §1
^b Relative ability to displace tritiumlabeled dexamethasone from the
receptor of the thymus of adrenalectomized rats as compared to […]

[3] = test system: endometrial response due to subcutaneous administration of progesterone; experiment: Oral antiprogestational activity (Anti-Clauberg); type: in vivo, estrogen-primed immature female rabbits; settings: for % Inhibition: based on change in McPhail Index; for McPhail Index: scale 0-4; for Wt of Uterus: ± SD
Procedure: The antiprogestational activity of the compounds was studied after both intrauterine and oral administration. In each case the compound was tested for its ability to inhibit the endometrial response due to subcutaneous administration of progesterone to estrogen-primed immature female rabbits. The methodology used for the intrauterine test has been described by D. A. McGinty et al. See Endocrinology, 24, 829 (1939). For oral administration of test compounds, the method used was analogous to that of Clauberg. See Clauberg, Zentr. Gynakol., 54, 2757 (1930) as modified by McPhail J. Physiol. (London), 83, 145 (1935).

[4] = actual dose giving ≥ 90% inhibition
[5] = total oral dose 1.0 mg, total SC progesterone 0.8 mg, N=6
[6] = total oral dose 5.0 mg, total SC progesterone 0.8 mg, N=6
[7] = total oral dose 10.0 mg, total SC progesterone 0.8 mg, N=5
[8] = progesterone alone, total SC dose 0.8 mg, no oral compound, N=6

CC(=O)C1=CC[C@H]2[C@@H]3CCC4=CC(=O)CCC4=C3[C@@H](c3ccc(N(C)C)cc3)C[C@]12C [Compound 23, 11β-(4-N,N-Dimethylaminophenyl)-19-norpregna-4,9,16-triene-3,20-dione]
binding to the progesterone receptor (in words) (progesterone receptor): binds relatively weakly to the progesterone receptor
RBA as fraction of the value of the 17α-acetoxy compounds (progesterone receptor; compared with the 17α-acetoxy compounds): less than one-fifth
Progestin RBA (progesterone receptor): 8
ED90 (actual dose) [1, 4]: 1.0 µg
ED50 [1]: 0.26 µg
ED90 (calculated) [1]: 0.81 µg
antiprogestational activity in vivo (in words) ([1]; rabbit, in vivo, listed as Δ-16 compound): even more potent activity; also recorded: exhibits strong antiprogestational activity

CC[C@@H]1C[C@H]2[C@@H]3C[C@H](C)C4=CC(=O)CCC4=C3[C@@H](c3ccc(N(C)C)cc3)C[C@]2(C)[C@H]1C(C)=O [Compound 15a, 6α-Methyl-16α-ethyl-11β-(4-N,N-dimethylaminophenyl)-19-norpregna-4,9-diene-3,20-dione]
P-RBA/G-RBA (progesterone receptor): 0.42
Progestin RBA (progesterone receptor): 61
McPhail Index, Left Horn (Treated) ([2]; dose 20.0 μg intrauterine): 3.8 ± 0.12
McPhail Index, Left Horn (Treated) ([2]; dose 40.0 μg intrauterine): 3.9 ± 0.12
McPhail Index, Left Horn (Treated) ([2]; dose 80.0 μg intrauterine): 3.8 ± 0.12
Glucocort. RBA (glucocorticoid receptor): 246
ED90 (actual dose) ([1]; footnote c: no inhibition at tested dose): < 10 µg

CC[C@@H]1C[C@H]2[C@@H]3C[C@@H](C)C4=CC(=O)CCC4=C3[C@@H](c3ccc(N(C)C)cc3)C[C@]2(C)[C@H]1C(C)=O [H, Et, β-CH3, 68-methyl-16α-ethyl-118-(4-N,N-dimethylaminophenyl)-19-norpregna-4,9-diene-3,20-dione]
P-RBA/G-RBA (progesterone receptor): 0.45
Progestin RBA (progesterone receptor): 48
Glucocort. RBA (glucocorticoid receptor): 106

CC(=O)O[C@]1(C(C)=O)CC[C@H]2[C@@H]3C[C@H](C)C4=CC(=O)CCC4=C3[C@@H](c3ccc(N(C)C)cc3)C[C@@]21C [Compound 8b, 6α-methyl-17α-acetoxy-11β-(4-N,N-dimethylaminophenyl)-19-norpregna-4,9-diene-3,20-dione]
P-RBA/G-RBA (progesterone receptor): 0.18
Progestin RBA (progesterone receptor): 43
% Inhibition [3, 5]: 12.7 ± 3.0%
% Inhibition [3, 6]: 51.6 ± 12.2%
% Inhibition [3, 7]: 67.2 ± 6.1%
McPhail Index [3, 5]: 3.46 ± 0.12
McPhail Index [3, 6]: 1.92 ± 0.48
McPhail Index [3, 7]: 1.30 ± 0.24
Wt of Uterus [3, 5]: 3.26 ± 0.34 g
Wt of Uterus [3, 6]: 2.14 ± 0.22 g
Wt of Uterus [3, 7]: 2.24 ± 0.27 g
Glucocort. RBA (glucocorticoid receptor): 242
ED90 (actual dose) [1, 4]: 2.0 µg
ED50 [1]: 0.54 µg
ED90 (calculated) [1]: 1.9 µg

CC(=O)O[C@]1(C(C)=O)CC[C@H]2[C@@H]3C[C@@H](C)C4=CC(=O)CCC4=C3[C@@H](c3ccc(N(C)C)cc3)C[C@@]21C [OAc, H, β-CH3]
Progestin RBA (progesterone receptor): 15

CC(=O)[C@@]1(O)CC[C@H]2[C@@H]3C[C@H](C)C4=CC(=O)CCC4=C3[C@@H](c3ccc(N(C)C)cc3)C[C@@]21C [OH, H, α-CH3]
P-RBA/G-RBA (progesterone receptor): 0.26
Progestin RBA (progesterone receptor): 46
Glucocort. RBA (glucocorticoid receptor): 175

CC(=O)[C@H]1CC[C@H]2[C@@H]3CCC4=CC(=O)CC[C@]4(C)[C@H]3CC[C@]12C [Progesterone, progesterone]
Wt of Uterus [3, 8]: 3.06 ± 0.45 g
McPhail Index [3, 8]: 3.96 ± 0.04

CC(=O)O[C@]1(C(C)=O)CC[C@H]2[C@@H]3CCC4=CC(=O)CCC4=C3[C@@H](c3ccc(N(C)C)cc3)C[C@@]21C [Compound 8a, 17α-acetoxy-11β-(4-N,N-dimethylaminophenyl)-19-norpregna-4,9-diene-3,20-dione]
P-RBA/G-RBA (progesterone receptor): 0.24
Progestin RBA (progesterone receptor): 47
Glucocort. RBA (glucocorticoid receptor): 198
ED90 (actual dose) [1, 4]: 2.0 µg
ED50 [1]: 0.41 µg
ED90 (calculated) [1]: 1.2 µg

CC(=O)[C@@]1(O)CC[C@H]2[C@@H]3CCC4=CC(=O)CCC4=C3[C@@H](c3ccc(N(C)C)cc3)C[C@@]21C [OH, H, H]
P-RBA/G-RBA (progesterone receptor): 0.37
Progestin RBA (progesterone receptor): 15
Glucocort. RBA (glucocorticoid receptor): 41
